Measured values from ChEMBL document CHEMBL1201862, “PubChem BioAssay data set” (2004).
Active and inactive are the calls of the source. Cut-off read from the data, not from the text of the source, for most assays here: actives have a measured EC50 and inactives only a lower limit.

Test system: not listed separately
Experiment: Luminescence Cell-Based Dose Confirmation HTS to Identify Inhibitors of Platelet Dense Granule Release. [Related pubchem assays: 1663 (Primary HTS), 1678 (Summary of Project)]
Format: functional
Settings: not given
For `N#Cc1ccc(/C=N/NC(=O)CCc2ccc(S(=O)(=O)N3CCOCC3)cc2)cc1`, the EC50 was > 112 µM (not active).

Target: Cytochrome P450 2C9 (Homo sapiens, UniProt P11712)
Sequence (P11712 whole entry): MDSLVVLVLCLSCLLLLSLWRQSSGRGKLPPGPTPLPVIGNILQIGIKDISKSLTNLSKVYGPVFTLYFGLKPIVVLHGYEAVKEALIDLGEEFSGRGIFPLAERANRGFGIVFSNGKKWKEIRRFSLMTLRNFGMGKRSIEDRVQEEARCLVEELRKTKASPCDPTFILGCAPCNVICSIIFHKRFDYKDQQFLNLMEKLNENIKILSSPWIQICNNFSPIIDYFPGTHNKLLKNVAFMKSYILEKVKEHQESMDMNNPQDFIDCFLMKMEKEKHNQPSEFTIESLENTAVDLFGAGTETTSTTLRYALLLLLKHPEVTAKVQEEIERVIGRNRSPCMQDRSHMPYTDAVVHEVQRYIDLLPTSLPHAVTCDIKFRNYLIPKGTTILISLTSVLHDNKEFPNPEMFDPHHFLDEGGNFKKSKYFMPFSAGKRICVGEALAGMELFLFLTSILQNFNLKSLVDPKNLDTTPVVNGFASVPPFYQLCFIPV
Settings: not given
For `CC1=CC(C)(C)N=C(S)N1c1cccc(C)c1`, the AC50 was 3.55 µM (inconclusive).

Target: Luciferin 4-monooxygenase (Photinus pyralis, UniProt P08659)
Sequence (P08659 whole entry): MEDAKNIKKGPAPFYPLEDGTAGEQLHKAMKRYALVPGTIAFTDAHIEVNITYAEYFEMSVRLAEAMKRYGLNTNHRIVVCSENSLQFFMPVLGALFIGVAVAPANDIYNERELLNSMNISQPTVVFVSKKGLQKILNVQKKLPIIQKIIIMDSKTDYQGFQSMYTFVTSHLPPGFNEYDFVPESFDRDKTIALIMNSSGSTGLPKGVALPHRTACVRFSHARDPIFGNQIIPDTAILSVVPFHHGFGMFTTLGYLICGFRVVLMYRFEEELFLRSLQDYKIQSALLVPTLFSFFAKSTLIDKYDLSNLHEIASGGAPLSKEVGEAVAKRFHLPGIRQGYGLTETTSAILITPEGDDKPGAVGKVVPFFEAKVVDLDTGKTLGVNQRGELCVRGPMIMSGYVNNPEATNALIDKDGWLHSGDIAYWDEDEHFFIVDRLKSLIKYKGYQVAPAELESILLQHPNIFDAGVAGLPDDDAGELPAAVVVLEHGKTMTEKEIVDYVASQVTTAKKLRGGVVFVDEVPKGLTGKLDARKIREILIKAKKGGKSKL
Experiment: inhibition of purified Photinus pyralis luciferase – biochemical, luminescence, dose response (AID 1891)
Settings: not given
For `N#Cc1ccc(/C=N/NC(=O)CCc2ccc(S(=O)(=O)N3CCOCC3)cc2)cc1`, the EC50 was > 112 µM (not active).

Target: T1, Heat shock factor protein 1 (Mus musculus, UniProt P38532)
T1 sequence (P38532 whole entry): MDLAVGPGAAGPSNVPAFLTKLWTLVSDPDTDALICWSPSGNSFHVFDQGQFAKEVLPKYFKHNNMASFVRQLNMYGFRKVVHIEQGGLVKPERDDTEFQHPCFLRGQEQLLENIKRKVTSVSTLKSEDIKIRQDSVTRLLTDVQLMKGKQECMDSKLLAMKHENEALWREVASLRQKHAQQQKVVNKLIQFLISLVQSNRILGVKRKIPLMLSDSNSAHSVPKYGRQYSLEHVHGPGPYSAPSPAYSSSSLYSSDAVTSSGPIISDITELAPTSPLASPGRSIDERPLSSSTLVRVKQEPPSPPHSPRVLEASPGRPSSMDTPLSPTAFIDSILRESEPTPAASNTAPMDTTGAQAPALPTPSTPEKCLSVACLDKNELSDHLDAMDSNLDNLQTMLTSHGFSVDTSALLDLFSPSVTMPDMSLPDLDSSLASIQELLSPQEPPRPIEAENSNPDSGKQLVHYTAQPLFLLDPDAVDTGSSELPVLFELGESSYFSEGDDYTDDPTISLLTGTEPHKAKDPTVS
Experiment: enhancement of HSF1-driven luciferase signal – cell-based, NIH3T3, luminescence, dose retest, confirmation (AID 435004);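 note: stress induced by proteasome inhibitor MG132 added 30 min after compound; luciferase reporter driven by HSF1 response element in NIH3T3 cells; actives raise luminescence as potentiators of the MG132 stress response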
Format: functional
Settings: not given
With `COc1cccc(OCc2ccc(Cl)cc2)c1C#N` the EC50 was > 260 µM (inactive).
With `CC1=CC(C)(C)N=C(S)N1c1cccc(C)c1` the EC50 was > 260 µM (inactive).
In the case of `CS(=O)(=O)Nc1cccc(C2=NN(C(=O)CCCC(=O)O)C(c3cccs3)C2)c1` (stereo not drawn), the EC50 is reported as > 260 µM (inactive).
For `O=C(OCc1csc(-c2ccccc2)n1)c1cccs1`, the EC50 was > 260 µM (inactive).
In the case of `O=C1/C(=C\c2ccc(Br)o2)Cc2ccccc21`, the EC50 is reported as 27.6 µM (active).
In the case of `C=CCn1c(=O)c2ccccc2n2c(SCC(=O)Nc3sc(C)c(CC)c3C(=O)OCC)nnc12`, the EC50 is reported as > 260 µM (inactive).

Test system: not listed separately
Experiment: Luminescence Cell-Based Dose Confirmation HTS to Identify Activators of 5'UTR Stem-Loop Driven Alpha-Synuclein mRNA Translation in H4 Neuroglioblastoma Cells. [Related pubchem assays: 1829 (Project Summary), 1814 (Primary HTS)]
Format: functional
Settings: not given
For `CC(C)(C)n1ncc2c(=O)n(CC(=O)c3ccc(Cl)cc3)cnc21`, the EC50 was 168 nM (active).

Target: T2, Corticotropin-releasing factor receptor 2/Corticotropin-releasing factor-binding protein (Homo sapiens, UniProt P24387+Q13324)
T2 sequence (Q13324 whole entry): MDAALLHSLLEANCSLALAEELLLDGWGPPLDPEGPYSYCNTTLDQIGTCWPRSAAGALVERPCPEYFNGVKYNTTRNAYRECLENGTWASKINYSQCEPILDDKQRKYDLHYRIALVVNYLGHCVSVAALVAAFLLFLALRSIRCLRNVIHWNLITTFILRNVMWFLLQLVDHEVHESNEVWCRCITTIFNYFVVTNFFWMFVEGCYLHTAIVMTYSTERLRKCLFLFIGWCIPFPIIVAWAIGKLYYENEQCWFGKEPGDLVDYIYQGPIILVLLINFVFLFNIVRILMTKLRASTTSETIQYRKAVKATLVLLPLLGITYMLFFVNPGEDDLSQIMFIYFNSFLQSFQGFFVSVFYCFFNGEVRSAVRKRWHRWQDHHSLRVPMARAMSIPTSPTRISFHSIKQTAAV
T2 sequence (P24387 whole entry): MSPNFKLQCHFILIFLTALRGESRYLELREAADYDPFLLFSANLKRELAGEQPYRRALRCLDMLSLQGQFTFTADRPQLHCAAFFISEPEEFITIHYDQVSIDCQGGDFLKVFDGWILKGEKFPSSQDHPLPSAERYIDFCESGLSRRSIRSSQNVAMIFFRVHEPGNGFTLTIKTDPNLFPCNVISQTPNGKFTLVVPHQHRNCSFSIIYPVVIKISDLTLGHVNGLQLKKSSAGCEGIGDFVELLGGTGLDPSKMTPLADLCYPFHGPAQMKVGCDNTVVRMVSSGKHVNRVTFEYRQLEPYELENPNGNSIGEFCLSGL
Experiment: activators of CRF receptor 2 with binding protein – uHTS hits, confirmation (AID 602473)
Format: functional
Settings: read-out: EC50_Mean
With `COc1ccc(-c2nn(-c3ccccc3)cc2/C=C(\C#N)S(=O)(=O)c2ccccc2)cc1OC` the EC50 was > 53 µM (inactive).
With `COCCN1CCN(C(=O)c2cc(COc3cc(C)ccc3C)on2)CC1` the EC50 was > 53 µM (inactive).
For `CC(C)N1CC(C(=O)Nc2ccc(Br)c(Cl)c2)CC1=O` (stereo not drawn), the EC50 was > 53 µM (inactive).
With `Cc1ccc(Cn2c(SCC(=O)NCC3CCCO3)nc3ccsc3c2=O)cc1` (stereo not drawn) the EC50 was > 53 µM (inactive).
For `CCC(C)(C)n1nnnc1C(c1cccc(C#N)c1)N1CCN(c2cccc(C)c2C)CC1` (stereo not drawn), the EC50 was > 53 µM (inactive).
With `O=C(Nc1ccc(C(=O)N2CCCC2)cc1)c1ccccc1F` the EC50 was > 53 µM (inactive).
For `CN(C)c1nc(NCc2ccccc2)nc(SCC(=O)Nc2ccccc2Cl)n1`, the EC50 was > 53 µM (inactive).
For `COc1ccc(OC)c(NC(=O)c2ccccc2NS(=O)(=O)c2cccc3cccnc23)c1`, the EC50 was > 53 µM (inactive).
With `NC(=O)COC(=O)c1cccc(S(=O)(=O)N2CCCCC2)c1` the EC50 was > 53 µM (inactive).
With `Cc1ccsc1/C=N\NC(=O)CCc1c(C)n[nH]c1C` the EC50 was > 53 µM (inactive).

Target: Cytochrome P450 2D6 (Homo sapiens, UniProt P10635);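 note: CYP2D6 member of a cytochrome P450 panel assay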
Sequence (P10635 whole entry): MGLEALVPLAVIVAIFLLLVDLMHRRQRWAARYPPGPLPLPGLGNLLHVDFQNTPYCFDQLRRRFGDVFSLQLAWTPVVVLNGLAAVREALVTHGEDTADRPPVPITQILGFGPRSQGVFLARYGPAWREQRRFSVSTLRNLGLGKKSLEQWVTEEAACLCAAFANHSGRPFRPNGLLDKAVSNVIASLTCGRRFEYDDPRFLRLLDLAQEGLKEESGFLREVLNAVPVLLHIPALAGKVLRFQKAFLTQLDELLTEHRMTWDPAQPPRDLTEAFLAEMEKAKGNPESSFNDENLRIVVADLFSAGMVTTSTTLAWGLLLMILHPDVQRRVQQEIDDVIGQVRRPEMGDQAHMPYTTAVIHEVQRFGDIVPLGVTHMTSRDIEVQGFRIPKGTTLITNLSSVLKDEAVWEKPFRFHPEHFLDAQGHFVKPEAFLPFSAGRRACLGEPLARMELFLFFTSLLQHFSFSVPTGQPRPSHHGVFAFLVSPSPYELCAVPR
Settings: not given
For `CC1=CC(C)(C)N=C(S)N1c1cccc(C)c1`, the AC50 was 6.31 µM (inconclusive).

Target: Cytochrome P450 3A4 (Homo sapiens, UniProt P08684);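 note: CYP3A4 tested as one member of a cytochrome P450 panel screen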
Sequence (P08684 whole entry): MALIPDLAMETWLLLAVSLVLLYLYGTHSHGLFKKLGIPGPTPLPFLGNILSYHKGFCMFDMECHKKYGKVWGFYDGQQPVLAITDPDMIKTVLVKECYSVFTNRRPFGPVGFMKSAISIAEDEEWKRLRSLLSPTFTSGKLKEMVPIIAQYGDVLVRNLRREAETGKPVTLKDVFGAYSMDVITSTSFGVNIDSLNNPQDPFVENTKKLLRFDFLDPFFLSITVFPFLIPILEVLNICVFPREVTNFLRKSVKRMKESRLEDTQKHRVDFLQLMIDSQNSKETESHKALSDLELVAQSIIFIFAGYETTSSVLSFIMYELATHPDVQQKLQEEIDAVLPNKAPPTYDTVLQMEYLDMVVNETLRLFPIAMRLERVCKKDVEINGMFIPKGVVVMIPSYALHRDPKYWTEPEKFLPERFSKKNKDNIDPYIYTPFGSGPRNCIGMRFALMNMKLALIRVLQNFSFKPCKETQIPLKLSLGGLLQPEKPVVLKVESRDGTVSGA
Settings: not given
For `CC1=CC(C)(C)N=C(S)N1c1cccc(C)c1`, the AC50 was 25.1 µM (inconclusive).

Target: T2, Corticotropin-releasing factor receptor 2/Corticotropin-releasing factor-binding protein
Experiment: Dose Response confirmation of uHTS hits for small molecule antagonists of the CRF-binding protein and CRF-R2 receptor complex.
Format: functional
Settings: read-out: IC50_Mean
For `COc1ccc(-c2nn(-c3ccccc3)cc2/C=C(\C#N)S(=O)(=O)c2ccccc2)cc1OC`, the IC50 was > 47.1 µM (inactive).
For `COCCN1CCN(C(=O)c2cc(COc3cc(C)ccc3C)on2)CC1`, the IC50 was > 47.1 µM (inactive).
With `CC(C)N1CC(C(=O)Nc2ccc(Br)c(Cl)c2)CC1=O` (stereo not drawn) the IC50 was > 47.1 µM (inactive).
In the case of `Cc1ccc(Cn2c(SCC(=O)NCC3CCCO3)nc3ccsc3c2=O)cc1` (stereo not drawn), the IC50 is reported as > 47.1 µM (inactive).
With `CCC(C)(C)n1nnnc1C(c1cccc(C#N)c1)N1CCN(c2cccc(C)c2C)CC1` (stereo not drawn) the IC50 was > 47.1 µM (inactive).
For `O=C(Nc1ccc(C(=O)N2CCCC2)cc1)c1ccccc1F`, the IC50 was > 47.1 µM (inactive).
In the case of `CN(C)c1nc(NCc2ccccc2)nc(SCC(=O)Nc2ccccc2Cl)n1`, the IC50 is reported as > 47.1 µM (inactive).
In the case of `COc1ccc(OC)c(NC(=O)c2ccccc2NS(=O)(=O)c2cccc3cccnc23)c1`, the IC50 is reported as < 0.368 µM (active).
For `NC(=O)COC(=O)c1cccc(S(=O)(=O)N2CCCCC2)c1`, the IC50 was > 47.1 µM (inactive).
With `Cc1ccsc1/C=N\NC(=O)CCc1c(C)n[nH]c1C` the IC50 was > 47.1 µM (inactive).

Test system: not listed separately
Experiment: Luminescence Cell-Based Dose Response HTS to Identify Activators of Luciferase Translation or Activity in H4 […] Cells. [Related pubchem assays: 1829 (Project Summary), 1814 (Primary HTS)]
Format: functional
Settings: not given
For `CC(C)(C)n1ncc2c(=O)n(CC(=O)c3ccc(Cl)cc3)cnc21`, the EC50 was 115 nM (active).
